Experimental data taken from patent US20090088472A1, “Protective Agent for Neuronal Cell Comprising Amidino Derivative as Active Ingredient” (priority 2006, published 2009).

Key:
[1] = tested on: retinal neuronal cells (RGC in ganglion cell layer, inner plexiform layer) damaged by NMDA; assay: NMDA-induced retinal damage in rats (intravitreal administration, histology after 14 days); type: in vivo; conditions: rat, 14 days after administration
Excerpt: In order to study the effect of protecting a retinal neuronal cell of a compound represented by the general formula [I] or a salt thereof, the effects of nafamostat and FUT-187, each of which is a compound represented by the general formula [I] or a salt thereof on NMDA-induced retinal damage in rats were studied. As comparative compounds, camostat (N,N-dimethylcarbamoylmethyl-4-(4-guanidinobenzoyloxy)phenylacetate methanesulfonate) represented by the following formula [II] and gabexate (ethyl-4-(6-guanidinohexanoyloxy)benzoate methanesulfonate) represented by the following formula [III] were used.
Each of NMDA, nafamostat and FUT-187 was dissolved in distilled water, whereby an NMDA solution, a nafamostat solution, and an FUT-187 aqueous solution were obtained. Then, the solutions were appropriately mixed, whereby an aqueous solution of 4 mM NMDA and 2 mM nafamostat (hereinafter referred to as “Test liquid 1”) and an aqueous solution of 4 mM NMDA and 2 mM FUT-187 (hereinafter referred to as “Test liquid 2”) were obtained. In the same manner, an aqueous solution of 4 mM NMDA and 20 mM camostat (hereinafter referred to as “Comparative test liquid 1”) and an aqueous solution of 4 mM NMDA and 20 mM gabexate (hereinafter referred to as “Comparative test liquid 2”) were obtained. Further, by mixing the NMDA solution and distilled water, a 4 mM NMDA liquid (hereinafter referred to as “NMDA liquid”) was obtained.
Mydriasis was induced in a rat with a 0.5% (w/v) tropicamide-0.5% phenylephrine hydrochloride ophthalmic solution, and then, anesthesia was induced with 3% halothane, and then, anesthesia was maintained with 1% halothane (halothane was vaporized with 0.5 L oxygen/min and 1.5 L dinitrogen monoxide/min). Then, a 0.4% (w/v) oxybuprocaine hydrochloride ophthalmic solution was instilled to the rat to anesthetize the surface of the eyeball, and by using a 32-gauge Hamilton microsyringe, 5 μl of Test liquid 1 was intravitreally administered under an operating microscope. Further, the same procedure as above was carried out by sequentially altering Test liquid 1 into distilled water, NMDA liquid, Test liquid 2, Comparative test liquid 1 and Comparative test liquid 2, respectively. Then, 14 days after the administration, the eyeball was taken out and fixed in 2.5% glutaraldehyde-10% neutral buffered formalin for 1 day. Thereafter, the cornea and lens were excised, and the 2.5% glutaraldehyde-10% neutral buffered formalin was changed to 10% neutral buffered formalin. At a later date, dehydration was carried out, followed by paraffin embedding and slicing and pathological tissue sections (with a thickness of 3 μm) stained with hematoxylin-eosin (HE) were prepared. From 8 sections which had been prepared by slicing the specimen with an interval of 15 μm per one eye such that the optic papilla was contained, 3 sections were optionally selected. With regard to the thus selected sections, a photograph of the retina in the range of from 1 to 1.5 mm on the left or right side from the optic papilla was taken, and the number of cells in the ganglion cell layer (GCL) in the retina (RGC number) and the thickness of the inner plexiform layer (IPL) were measured. From these measured values and in accordance with Equation 1 and Equation 2, a ganglion cell death inhibition rate and an IPL thinning inhibition rate were calculated. […]

trypsin = conditions: stated as known; cited from earlier work
[2] = 100 nmol/eye co-administered with 4 mM NMDA (5 μl)
[3] = 10 nmol/eye co-administered with 4 mM NMDA (5 μl)
[4] = 10 nmol/eye co-administered with 4 mM NMDA (5 μl), listed as FUT-187
[5] = 10 nmol/eye co-administered with 4 mM NMDA (5 μl), listed as nafamostat

SMILES | Ganglion cell death inhibition rate [1, 2] [%] | IPL thinning inhibition rate [1, 2] [%] | trypsin inhibitory activity (trypsin) | Ganglion cell death inhibition rate [1, 3] [%] | IPL thinning inhibition rate [1, 3] [%] | Ganglion cell death inhibition rate [1, 4] | IPL thinning inhibition rate [1, 4] | Ganglion cell death inhibition rate [1, 5] | IPL thinning inhibition rate [1, 5]
CCOC(=O)c1ccc(OC(=O)CCCCCNC(=N)N)cc1 [Comparative test liquid 2, ethyl-4-(6-guanidinohexanoyloxy)benzoate methanesulfonate] | 17.8 | 2.4 | have a trypsin inhibitory activity | – | – | – | – | – | –
N=C(N)c1ccc2cc(OC(=O)c3ccc(NC4=NCCN4)cc3)ccc2c1 [Test liquid 2, 6′-amidino-2′-naphthyl-(4-(4,5-dihydro-1H-2-imidazolyl)amino)benzoate dimethanesulfonate] | – | – | have the same activity | 136.8 | 63.1 | high | high | – | –
N=C(N)Nc1ccc(C(=O)Oc2ccc3cc(C(=N)N)ccc3c2)cc1 [Test liquid 1, 6′-amidino-2′-naphthyl-4-guanidinobenzoate dimethanesulfonate] | – | – | have the same activity | 78.8 | 54.8 | – | – | high | high
